Test results from patent US12077503B2, “Substituted cyclic amides and their use as herbicides” (FMC CORPORATION, priority 2015, dated 2024).

Legend:
Format in all cases: in vivo
[1] = tested on: giant foxtail (Setaria faberii); assay: Test A preemergence; settings: for Plant response rating, Foxtail, Giant: 125 g ai/ha, preemergence, 0 to 100 scale (0 no effect, 100 complete control); for Foxtail, Giant plant response rating (0 to 100 scale): Preemergence, 500 g ai/ha, 0 is no effect, 100 is complete control
Procedure, shortened: (§1)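 Treatment is preemergence as a directed soil spray after planting, or postemergence at the one- to two-leaf stage, with test chemical in a non-phytotoxic solvent mixture plus surfactant. Plants stay in the greenhouse about 10 d before visual injury scoring on a 0 to 100 scale versus untreated controls.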

[2] = tested on: wheat (Triticum aestivum); assay: Test A preemergence; settings: for Plant response rating, Wheat: 125 g ai/ha, preemergence, 0 to 100 scale (0 no effect, 100 complete control); for Wheat plant response rating (0 to 100 scale): Preemergence, 500 g ai/ha, 0 is no effect, 100 is complete control
Procedure, shortened: as §1

[3] = tested on: crabgrass, large (Digitaria sanguinalis); assay: Test A preemergence; settings: for Plant response rating, Crabgrass, Large: 125 g ai/ha, preemergence, 0 to 100 scale (0 no effect, 100 complete control); for Crabgrass, Large plant response rating (0 to 100 scale): Preemergence, 500 g ai/ha, 0 is no effect, 100 is complete control
Procedure, shortened: as §1

[4] = tested on: morningglory (Ipomoea spp.); assay: Test A preemergence
Procedure, shortened: as §1

[5] = tested on: pigweed (Amaranthus retroflexus); assay: Test A preemergence; settings: for Plant response rating, Pigweed: 125 g ai/ha, preemergence, 0 to 100 scale (0 no effect, 100 complete control); for Pigweed plant response rating (0 to 100 scale): Preemergence, 500 g ai/ha, 0 is no effect, 100 is complete control
corn (Zea mays) [6] = assay: Test A preemergence; settings: for Plant response rating, Corn: 125 g ai/ha, preemergence, 0 to 100 scale (0 no effect, 100 complete control); for Corn plant response rating (0 to 100 scale): Preemergence, 500 g ai/ha, 0 is no effect, 100 is complete control
Procedure, shortened: as §1

[7] = tested on: barnyardgrass (Echinochloa crus-galli); assay: Test A preemergence; settings: for Plant response rating, Barnyardgrass: 125 g ai/ha, preemergence, 0 to 100 scale (0 no effect, 100 complete control); for Barnyardgrass plant response rating (0 to 100 scale): Preemergence, 500 g ai/ha, 0 is no effect, 100 is complete control
Procedure, shortened: as §1

[8] = tested on: velvetleaf (Abutilon theophrasti); assay: Test A preemergence; settings: for Plant response rating, Velvetleaf: 125 g ai/ha, preemergence, 0 to 100 scale (0 no effect, 100 complete control); for Velvetleaf plant response rating (0 to 100 scale): Preemergence, 500 g ai/ha, 0 is no effect, 100 is complete control
Procedure, shortened: as §1

[9] = tested on: sedge, umbrella (small-flower umbrella sedge, Cyperus difformis); assay: Test B flooded paddy test; settings: Flood, 250 g ai/ha; 0 to 100 scale where 0 is no effect and 100 is complete control; 13 to 15 d
Procedure, shortened: (§2)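 Response scored visually against untreated controls, 0 = no effect and 100 = complete control, 13–15 d after treatment in the greenhouse. Compounds added to paddy water held 3 cm above soil surface. Treatment given at 2-leaf stage.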

[10] = tested on: ducksalad (Heteranthera limosa); assay: Test B flooded paddy test; settings: Flood, 250 g ai/ha; 0 to 100 scale where 0 is no effect and 100 is complete control; 13 to 15 d
Procedure, shortened: as §2

rice (Oryra sativa) = assay: Test B flooded paddy test; settings: Flood, 250 g ai/ha; 0 to 100 scale where 0 is no effect and 100 is complete control; 13 to 15 d
Procedure, shortened: as §2

[11] = tested on: barnyardgrass (Echinochloa crus-galli); assay: Test B flooded paddy test; settings: Flood, 250 g ai/ha; 0 to 100 scale where 0 is no effect and 100 is complete control; 13 to 15 d
Procedure, shortened: as §2

[12] = tested on: giant foxtail (Setaria faberii); assay: Test A postemergence
Procedure, shortened: as §1

[13] = tested on: wheat (Triticum aestivum); assay: Test A postemergence
Procedure, shortened: as §1

[14] = tested on: crabgrass, large (Digitaria sanguinalis); assay: Test A postemergence
Procedure, shortened: as §1

[15] = tested on: morningglory (Ipomoea spp.); assay: Test A postemergence
Procedure, shortened: as §1

[16] = tested on: pigweed (Amaranthus retroflexus); assay: Test A postemergence
Procedure, shortened: as §1

corn (Zea mays) [17] = assay: Test A postemergence
Procedure, shortened: as §1

[18] = tested on: barnyardgrass (Echinochloa crus-galli); assay: Test A postemergence
Procedure, shortened: as §1

[19] = tested on: velvetleaf (Abutilon theophrasti); assay: Test A postemergence
Procedure, shortened: as §1

[20] = tested on: sedge, umbrella (small-flower umbrella sedge, Cyperus difformis); assay: Test C flooded paddy test; settings: Flood, 0 is no effect, 100 is complete control
Procedure, shortened: (§3)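 Scores express visual response relative to untreated controls, 0 meaning no effect and 100 complete control, assessed 13 to 15 d after treatment in the greenhouse. Compound went into water flooded 3 cm above soil around 2-leaf plants.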

[21] = tested on: ducksalad (Heteranthera limosa); assay: Test C flooded paddy test; settings: Flood, 0 is no effect, 100 is complete control
Procedure, shortened: as §3

rice (Oryza sativa) = assay: Test C flooded paddy test; settings: Flood, 0 is no effect, 100 is complete control
Procedure, shortened: as §3

[22] = tested on: barnyardgrass (Echinochloa crus-galli); assay: Test C flooded paddy test; settings: Flood, 0 is no effect, 100 is complete control
Procedure, shortened: as §3

[23] = 500 g ai/ha, postemergence, 0 to 100 scale, 0 no effect, 100 complete control
[24] = Postemergence, 125 g ai/ha, visual injury, 0 to 100 scale (0 no effect, 100 complete control), approx. 10 d

## O=C1NCC(c2ccc(F)c(F)c2)C1C(=O)Nc1n[nH]cc1Br (racemic) [Compound 361]
[1]
  Plant response rating, Foxtail, Giant: 0
  Foxtail, Giant plant response rating (0 to 100 scale): 0
[2]
  Plant response rating, Wheat: 0
  Wheat plant response rating (0 to 100 scale): 0
[3]
  Plant response rating, Crabgrass, Large: 0
  Crabgrass, Large plant response rating (0 to 100 scale): 0
[4]; 125 g ai/ha, preemergence, 0 to 100 scale (0 no effect, 100 complete control)
  Plant response rating, Morningglory: 0
[4]; Preemergence, 500 g ai/ha, 0 is no effect, 100 is complete control
  Morningglory plant response rating (0 to 100 scale): 0
[5]
  Plant response rating, Pigweed: 0
  Pigweed plant response rating (0 to 100 scale): 0
Corn (Zea mays) [6]
  Plant response rating, Corn: 0
  Corn plant response rating (0 to 100 scale): 0
[7]
  Plant response rating, Barnyardgrass: 0
  Barnyardgrass plant response rating (0 to 100 scale): 0
[8]
  Plant response rating, Velvetleaf: 0
  Velvetleaf plant response rating (0 to 100 scale): 0
[9]
  Plant response rating, Sedge, Umbrella: 0
[10]
  Plant response rating, Ducksalad: 0
Rice (Oryra sativa)
  Plant response rating, Rice: 0
[11]
  Plant response rating, Barnyardgrass: 0
[12]; [23]
  Plant response rating, Foxtail, Giant: 0
[12]; [24]
  Plant response rating, Foxtail, Giant: 0
[13]; [23]
  Plant response rating, Wheat: 0
[13]; [24]
  Plant response rating, Wheat: 0
[14]; [23]
  Plant response rating, Crabgrass, Large: 0
[14]; [24]
  Plant response rating, Crabgrass, Large: 0
[15]; [23]
  Plant response rating, Morningglory: 0
[15]; [24]
  Plant response rating, Morningglory: 0
[16]; [23]
  Plant response rating, Pigweed: 0
[16]; [24]
  Plant response rating, Pigweed: 0
Corn (Zea mays) [17]; [23]
  Plant response rating, Corn: 0
Corn (Zea mays) [17]; [24]
  Plant response rating, Corn: 0
[18]; [23]
  Plant response rating, Barnyardgrass: 0
[18]; [24]
  Plant response rating, Barnyardgrass: 0
[19]; [23]
  Plant response rating, Velvetleaf: 0
[19]; [24]
  Plant response rating, Velvetleaf: 0

## O=C1NCC(c2cccnc2)C1C(=O)Nc1ccccc1F (racemic) [Compound 363]
[1]
  Plant response rating, Foxtail, Giant: 0
  Foxtail, Giant plant response rating (0 to 100 scale): 0
[2]
  Plant response rating, Wheat: 0
  Wheat plant response rating (0 to 100 scale): 0
[3]
  Plant response rating, Crabgrass, Large: 0
  Crabgrass, Large plant response rating (0 to 100 scale): 0
[5]
  Plant response rating, Pigweed: 0
  Pigweed plant response rating (0 to 100 scale): 0
Corn (Zea mays) [6]
  Plant response rating, Corn: 0
  Corn plant response rating (0 to 100 scale): 0
[7]
  Plant response rating, Barnyardgrass: 0
  Barnyardgrass plant response rating (0 to 100 scale): 0
[8]
  Plant response rating, Velvetleaf: 0
  Velvetleaf plant response rating (0 to 100 scale): 0
[12]; [23]
  Plant response rating, Foxtail, Giant: 0
[12]; [24]
  Plant response rating, Foxtail, Giant: 0
[13]; [23]
  Plant response rating, Wheat: 0
[13]; [24]
  Plant response rating, Wheat: 0
[14]; [23]
  Plant response rating, Crabgrass, Large: 0
[14]; [24]
  Plant response rating, Crabgrass, Large: 0
[15]; [23]
  Plant response rating, Morningglory: 0
[15]; [24]
  Plant response rating, Morningglory: 0
[16]; [23]
  Plant response rating, Pigweed: 0
[16]; [24]
  Plant response rating, Pigweed: 0
Corn (Zea mays) [17]; [23]
  Plant response rating, Corn: 0
Corn (Zea mays) [17]; [24]
  Plant response rating, Corn: 0
[18]; [23]
  Plant response rating, Barnyardgrass: 0
[18]; [24]
  Plant response rating, Barnyardgrass: 0
[19]; [23]
  Plant response rating, Velvetleaf: 10
[19]; [24]
  Plant response rating, Velvetleaf: 0
[20]; 31 g ai/ha
  Plant response rating (scale of 0 to 100), Sedge, Umbrella: 0
[20]; 62 g ai/ha
  Plant response rating (scale of 0 to 100), Sedge, Umbrella: 0
[20]; 125 g ai/ha
  Plant response rating (scale of 0 to 100), Sedge, Umbrella: 0
[20]; 250 g ai/ha
  Plant response rating (scale of 0 to 100), Sedge, Umbrella: 0
[21]; 31 g ai/ha
  Plant response rating (scale of 0 to 100), Ducksalad: 0
[21]; 62 g ai/ha
  Plant response rating (scale of 0 to 100), Ducksalad: 0
[21]; 125 g ai/ha
  Plant response rating (scale of 0 to 100), Ducksalad: 0
[21]; 250 g ai/ha
  Plant response rating (scale of 0 to 100), Ducksalad: 0
Rice (Oryza sativa); 31 g ai/ha
  Plant response rating (scale of 0 to 100), Rice: 0
Rice (Oryza sativa); 62 g ai/ha
  Plant response rating (scale of 0 to 100), Rice: 0
Rice (Oryza sativa); 125 g ai/ha
  Plant response rating (scale of 0 to 100), Rice: 0
Rice (Oryza sativa); 250 g ai/ha
  Plant response rating (scale of 0 to 100), Rice: 0
[22]; 31 g ai/ha
  Plant response rating (scale of 0 to 100), Barnyardgrass: 0
[22]; 62 g ai/ha
  Plant response rating (scale of 0 to 100), Barnyardgrass: 0
[22]; 125 g ai/ha
  Plant response rating (scale of 0 to 100), Barnyardgrass: 0
[22]; 250 g ai/ha
  Plant response rating (scale of 0 to 100), Barnyardgrass: 0
